Reference: US12433870B2, “Supramolecular photoprotection of a photosensitizer” (Northwestern University, priority 2019, dated 2025)

Tests used:
A2780 cells [1] = assay: Cellular uptake studies by flow cytometry (MFI); type: cell-based, human; details: 10 μM, 30 min to 12 h
Description: A2780 cells (5×10^5 cells/mL, 200 μL) were seeded in each well of a 48-well plate and treated with 10 μM PBS solution of ExBox^4+⊃DPP for 30 min, 1 h, 2 h, 6 h, and 12 h. Cells were washed with PBS, trypsinized, and incubated with 50 μL of 1:100 Zombie Aqua fixable cell viability dye for 15 min at 4° C. After incubation, cells were washed with 600 μL PBS, spun at 400 ref for 5 min, and the supernatant was discarded. Cells were then suspended in 100 μL of 2% paraformaldehyde prior to being analyzed using a BD Fortessa flow cytometer. Cells were first gated for singlet events using FSC-A vs. FSC-H, after which debris was excluded used FSC-A vs. SSC-A. Cells gated as Zombie Aqua low were considered live cells, which were then analyzed for their median fluorescence intensity (MFI) in the PE-Cy5 channel for ExBox^4+⊃DPP fluorescence, representing the amount of ExBox^4+⊃DPP taken up by each cell.

ExBox^4+ and DPP = assay: 1H NMR titration, host-guest association constant (1:1 binding model); details: 1H NMR titration in (CD3)2CO, 298 K
Description: The synthesis of ExBox•4Cl was carried out following our previously reported procedure^17. Solid DPP (0.46 mg, […]) was dissolved in Me2CO (1 mM, 1 mL) and added to a solution of ExBox•4Cl in H2O (1.0 mM, 1 mL). The mixture was sonicated for 15 min, Me2CO was removed in vacuum, and the H2O portion was passed through a 0.45-μm filter to yield 1:1 ExBox^4+⊃DPP complex (FIG. 1A) in water. Upon complex formation, the aqueous solution color changed to light orange-pink or tangerine. […] The resonances for the α and CH2 protons of ExBox^4+ were affected only slightly by the shielding effect of DPP as they are located at the corners and display only slight shifts in their […] spectra. This pattern is in excellent agreement with the inclusion of DPP inside ExBox^4+ in solution. […] The association constant (Ka) obtained from 1:1 binding model was calculated to be 12600±300 M^−1 from the chemical shifts of […] titrations experiments (FIG. 1B-1C) between ExBox^4+ and DPP in (CD3)2CO.
The ^1H NMR (298 K, 500 MHz) titration was performed by adding small volumes of a solution of DPP in Me2CO-d6 to a solution of ExBox•4PF6 in Me2CO-d6. […]
(CD3)2CO stock solutions of ExBox^4+ (0.4 mM) and DPP (5.4 mM) were prepared. […] The NMR spectra were recorded after each addition of DPP solution. […]

A2780 cells [2] = assay: Intracellular ROS generation (DCFDA assay); type: cell-based, human; details: 10 μM/0.156 J cm^−2 light dose, compared with dark or untreated cells
Description: Intracellular ROS generation assay was performed using DCFDA Cellular ROS Detection Assay Kit (Abeam), according to the manufacturer's instructions. Briefly, A2780 cells (2.5×10^5 cells/mL, 100 μL) were seeded in each well of a black 96-well plate and incubated with PBS solution of ExBox^4+⊃DPP for 12 h. After incubation, cells were washed with PBS and incubated with 2′,7′-dichlorofluorescin diacetate (DCFDA) (20 μM) for 45 min in the dark. Then the cells were rinsed with PBS, irradiated and fluorescence was measured (λex=485 and λem=535 nm) using a microplate reader. Control experiments with PBS solution of ExBox^4+⊃DPP treated cells and untreated cells, both with and without irradiation were performed.

A2780 cells [3] = assay: In vitro PDT efficacy, MTT assay after visible light irradiation; type: cell-based, human
Description: A2780 cells (human ovarian cancer cell line) and MCF-7 cells (human breast adenocarcinoma cell line) obtained from Sigma-Aldrich and American Type Culture Collection (ATCC, Rockville, MD, USA), respectively were utilized for cell culture experiments. These cells were cultured in Dulbecco's Modified Eagle's Medium (DMEM) supplemented with 10% fetal bovine serum (FBS), penicillin (100 IU/mL) and streptomycin (100 μg/mL) at 37° C. in the presence of air (95%) and CO2 (5%).
A2780 or MCF-7 cells (2×10^5 cells/mL, 100 μL) were seeded in each well of a black 96-well plate. Stock solution of ExBox^4+⊃DPP in PBS (1 mM, 10 μL) was added to each well to achieve working concentrations and incubated for 12 h. After incubation, wells were washed with PBS, added with 100 μL of DMEM and immediately irradiated with visible light using Max-303 Xenon Light Source (385-740 nm, Asahi Spectra) at different light intensities (5-50 mW) for 1 to 15 min. Following irradiation, cells were incubated overnight and then added with MTT (5 mg/mL in PBS, 10 μL). After 4 h incubation with MTT, media from each well was pipetted out, formazan crystals deposited on the plate were dissolved in 200 μL of Me2SO, and the absorbance of each well was measured using a microplate reader at 560 nm. All the samples were analyzed in quadruplicates.
The percentage cell viability was calculated using the following formula: % cell viability=(OD of treated sample/OD of untreated sample)*100.

C1=Cc2nc1cc1ccc([nH]1)c(-c1ccccc1)c1nc(cc3ccc([nH]3)c2-c2ccccc2)C=C1.c1cc2ccc1C[n+]1ccc(cc1)-c1ccc(cc1)-c1cc[n+](cc1)Cc1ccc(cc1)C[n+]1ccc(cc1)-c1ccc(cc1)-c1cc[n+](cc1)C2 [ExBox^4+⊃DPP]
uptake and DPP fluorescence signal (MFI) (A2780 cells [1]): time-dependent increase | association constant (Ka) (ExBox^4+ and DPP): 12600 ± 300 M⁻¹ | increase in intracellular ROS (A2780 cells [2]): 20 fold | killing of A2780 cells (A2780 cells [3]; 10 μM, 10 min visible light irradiation, 0.078 and 0.156 J cm^−2): > 95% | irradiation time to kill >90% A2780 cells (A2780 cells [3]; 0.078 J cm^−2 light dose, 5 μM): 10 min | killing of A2780 cells at other concentrations (A2780 cells [3]; 0.1, 0.05 and 0.01 μM, 10 min irradiation, 0.078 and 0.156 J cm^−2): less efficient | irradiation time to kill >90% of cells (A2780 cells [3]; 0.156 J cm^−2 light dose, 10 μM): 2 min | effect on cell viability (MTT) (A2780 cells [3]; 1.25 and 0.625 μM, light doses 0.078 and 0.156 J cm^−2): almost no effect on cell viability | A2780 cell-death (MTT) (A2780 cells [3]; 2.5, 5 and 10 μM, light doses 0.078 and 0.156 J cm^−2): > 90% | efficacy at light dose 0.032 J cm^−2 (MTT) (A2780 cells [3]; light dose 0.032 J cm^−2): efficacious only at 5 and 10 μM concentrations | effect on cell viability (MTT) (A2780 cells [3]; light dose, same concentrations): no effect on cell viability
